# Legend:
# recombinant human CD39 = molecular target: T1, recombinant human CD39 (Homo sapiens, UniProt P49961); experiment: CD39 in vitro enzymatic assay (ATP, colorimetric 630 nm); type: biochemical;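 also: test compound preincubated 30 min with enzyme, then 30 min reaction with ATP at room temperature, absorbance after detection reagent, 100% activity without compound, 0% without enzyme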
# T1 construct: purchased BPS Bioscience 71284 (enzyme); kit #79278
# T1 sequence (P49961 1-510): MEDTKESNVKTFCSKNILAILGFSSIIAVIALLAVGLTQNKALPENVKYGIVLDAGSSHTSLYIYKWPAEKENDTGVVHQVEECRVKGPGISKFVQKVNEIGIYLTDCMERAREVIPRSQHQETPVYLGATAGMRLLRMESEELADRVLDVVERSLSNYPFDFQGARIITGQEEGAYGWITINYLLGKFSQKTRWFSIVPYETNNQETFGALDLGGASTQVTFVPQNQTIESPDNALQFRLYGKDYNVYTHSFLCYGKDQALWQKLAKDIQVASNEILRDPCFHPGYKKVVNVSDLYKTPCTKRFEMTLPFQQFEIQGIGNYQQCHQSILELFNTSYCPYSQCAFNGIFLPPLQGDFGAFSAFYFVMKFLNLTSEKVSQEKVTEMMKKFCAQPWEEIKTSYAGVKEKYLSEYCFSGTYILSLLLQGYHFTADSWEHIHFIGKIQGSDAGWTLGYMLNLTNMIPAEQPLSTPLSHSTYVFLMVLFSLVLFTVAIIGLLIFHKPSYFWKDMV
# Description: The CD39 enzymatic reactions were conducted in duplicate at room temperature for 30 minutes in a 50 μl mixture containing assay buffer, ATP, CD39 enzymes, and the test compound. Test compounds were preincubated with the enzyme for 30 minutes. Reactions were started by addition of the substrate. The 50 μl reactions were carried out in a 96-well transparent plate. After enzymatic reactions, 100 μl of Colorimetric Detection Reagent was added to the reaction mix. After a 15 minutes incubation, absorbance was measured using a Tecan plate reader at 630 nm.
# recombinant human CD73 = molecular target: T2, recombinant human CD73 (Homo sapiens, UniProt P21589); experiment: CD73 in vitro enzymatic assay (colorimetric 630 nm); type: biochemical; conditions: TABLE 91
# T2 construct: purchased BPS Bioscience 71184 (enzyme); kit #72055
# T2 sequence (P21589 27-549): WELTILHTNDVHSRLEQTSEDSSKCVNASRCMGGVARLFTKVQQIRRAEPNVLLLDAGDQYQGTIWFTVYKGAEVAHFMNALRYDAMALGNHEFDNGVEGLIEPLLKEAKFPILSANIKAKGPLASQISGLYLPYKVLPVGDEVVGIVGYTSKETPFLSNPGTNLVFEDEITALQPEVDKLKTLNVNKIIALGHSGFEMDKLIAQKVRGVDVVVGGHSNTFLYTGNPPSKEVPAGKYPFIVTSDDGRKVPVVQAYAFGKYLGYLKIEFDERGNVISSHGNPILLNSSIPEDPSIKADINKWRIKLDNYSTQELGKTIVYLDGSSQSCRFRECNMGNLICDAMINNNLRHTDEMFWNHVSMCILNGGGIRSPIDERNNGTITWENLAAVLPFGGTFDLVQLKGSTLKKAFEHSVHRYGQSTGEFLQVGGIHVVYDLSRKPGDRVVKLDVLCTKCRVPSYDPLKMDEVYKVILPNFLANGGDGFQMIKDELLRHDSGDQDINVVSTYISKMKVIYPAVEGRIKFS
# Description: Here, D5 is the Yellow Blend, D9 is the Purple Blend, D21 is the Green Blend, D13 is the Red Blend, and D31 is CBD. As before, the red blend included Apple Extract, Pomegranate Extract, Tomato Powder, Beet; the green blend included Olive Extract, Rosemary Extract, Green Coffee Bean Extract, Kale; the orange/yellow blend included Onion Extract, Ginger Extract, Grapefruit Extract, Carrot; and the purple/blue blend included Grape, Blueberry Extract, Currant, Elderberry.
# Assay Conditions: In general, all assays points were done by following the CD39 and CD73 Inhibitor Screening Assay Kit protocol (BPS Bioscience, #79278 and 72055, respectively). The CD73 enzymatic reactions were conducted in duplicate at room temperature for 30 minutes in a 50 μl mixture containing assay buffer, […], CD73 enzymes, and the test compound. Test compounds were preincubated with the enzyme for 30 minutes. Reactions were started by addition of the substrate. The 50 μl reactions were carried out in a 96-well transparent plate. After enzymatic reactions, 100 μl of Colorimetric Detection Reagent was added to the reaction mix. After a 15 minutes incubation, absorbance was measured using a Tecan plate reader at 630 nm.
# Data Analysis: Enzyme activity assays were performed in duplicates at each concentration. The Absorbance intensity data were analyzed and compared. In the absence of the compound, the intensity in each data set was defined as 100% (Ce) activity. In the absence of enzyme, the intensity in each data set was defined as 0% (C0) activity.
molecule,measurement,setting,value
"C=C(C)[C@@H]1CCC(C)=C[C@H]1c1c(O)cc(CCCCC)cc1O [D31, CBD]",Activity (%) Rep. 1,"recombinant human CD39; 0.0004%, TABLE 81",93%
same,Activity (%) Rep. 2,"recombinant human CD39; 0.0004%, TABLE 81",91%
same,Inhibition (%),"recombinant human CD39; 0.0004%, TABLE 81",8%
same,Net absorbance Rep. 1,"recombinant human CD39; 0.0004%, TABLE 81",0.50
same,Net absorbance Rep. 2,"recombinant human CD39; 0.0004%, TABLE 81",0.49
same,Activity (%) Rep. 1,"recombinant human CD39; 0.002%, TABLE 81",90%
same,Activity (%) Rep. 2,"recombinant human CD39; 0.002%, TABLE 81",92%
same,Inhibition (%),"recombinant human CD39; 0.002%, TABLE 81",9%
same,Net absorbance Rep. 1,"recombinant human CD39; 0.002%, TABLE 81",0.48
same,Net absorbance Rep. 2,"recombinant human CD39; 0.002%, TABLE 81",0.49
same,Activity (%) Rep. 1,"recombinant human CD39; 0.01%, TABLE 81",96%
same,Activity (%) Rep. 2,"recombinant human CD39; 0.01%, TABLE 81",103%
same,Inhibition (%),"recombinant human CD39; 0.01%, TABLE 81",1%
same,Net absorbance Rep. 1,"recombinant human CD39; 0.01%, TABLE 81",0.52
same,Net absorbance Rep. 2,"recombinant human CD39; 0.01%, TABLE 81",0.55
same,Activity (%) Rep. 1,recombinant human CD73; 0.0004%,104%
same,Activity (%) Rep. 2,recombinant human CD73; 0.0004%,101%
same,Inhibition (%),recombinant human CD73; 0.0004%,0%
same,Net absorbance Rep. 1,recombinant human CD73; 0.0004%,0.35
same,Net absorbance Rep. 2,recombinant human CD73; 0.0004%,0.34
same,Activity (%) Rep. 1,recombinant human CD73; 0.002%,103%
same,Activity (%) Rep. 2,recombinant human CD73; 0.002%,100%
same,Inhibition (%),recombinant human CD73; 0.002%,0%
same,Net absorbance Rep. 1,recombinant human CD73; 0.002%,0.35
same,Net absorbance Rep. 2,recombinant human CD73; 0.002%,0.34
same,Activity (%) Rep. 1,recombinant human CD73; 0.01%,106%
same,Activity (%) Rep. 2,recombinant human CD73; 0.01%,98%
same,Inhibition (%),recombinant human CD73; 0.01%,0%
same,Net absorbance Rep. 1,recombinant human CD73; 0.01%,0.35
same,Net absorbance Rep. 2,recombinant human CD73; 0.01%,0.33
POM-1,Activity (%) Rep. 1,"recombinant human CD39; 0.001 μM, TABLE 79",79%
same,Activity (%) Rep. 2,"recombinant human CD39; 0.001 μM, TABLE 79",78%
same,CD39 Inhibition (%),"recombinant human CD39; 0.001 μM, TABLE 79",21%
same,Net absorbance Rep. 1,"recombinant human CD39; 0.001 μM, TABLE 79",0.42
same,Net absorbance Rep. 2,"recombinant human CD39; 0.001 μM, TABLE 79",0.41
same,Activity (%) Rep. 1,"recombinant human CD39; 0.001 μM, TABLE 80",99%
same,Activity (%) Rep. 2,"recombinant human CD39; 0.001 μM, TABLE 80",90%
same,Inhibition (%),"recombinant human CD39; 0.001 μM, TABLE 80",5%
same,Net absorbance Rep. 1,"recombinant human CD39; 0.001 μM, TABLE 80",0.281
same,Net absorbance Rep. 2,"recombinant human CD39; 0.001 μM, TABLE 80",0.254
same,Activity (%) Rep. 1,"recombinant human CD39; 0.001 μM, TABLE 81",96%
same,Activity (%) Rep. 2,"recombinant human CD39; 0.001 μM, TABLE 81",92%
same,Inhibition (%),"recombinant human CD39; 0.001 μM, TABLE 81",6%
same,Net absorbance Rep. 1,"recombinant human CD39; 0.001 μM, TABLE 81",0.51
same,Net absorbance Rep. 2,"recombinant human CD39; 0.001 μM, TABLE 81",0.49
same,Activity (%) Rep. 1,"recombinant human CD39; 0.001 μM, TABLE 83",86%
same,Activity (%) Rep. 2,"recombinant human CD39; 0.001 μM, TABLE 83",89%
same,Inhibition (%),"recombinant human CD39; 0.001 μM, TABLE 83",13%
same,Net absorbance Rep. 1,"recombinant human CD39; 0.001 μM, TABLE 83",0.25
same,Net absorbance Rep. 2,"recombinant human CD39; 0.001 μM, TABLE 83",0.26
same,Activity (%) Repeat 1,"recombinant human CD39; 0.001 μM, TABLE 85",85%
same,Activity (%) Repeat 2,"recombinant human CD39; 0.001 μM, TABLE 85",89%
same,Inhibition (%),"recombinant human CD39; 0.001 μM, TABLE 85",13%
same,Net Signal (Absorbance) Repeat 1,"recombinant human CD39; 0.001 μM, TABLE 85",0.27
same,Net Signal (Absorbance) Repeat 2,"recombinant human CD39; 0.001 μM, TABLE 85",0.29
same,Activity (%) Rep. 1,"recombinant human CD39; 0.01 μM, TABLE 79",49%
same,Activity (%) Rep. 2,"recombinant human CD39; 0.01 μM, TABLE 79",56%
same,CD39 Inhibition (%),"recombinant human CD39; 0.01 μM, TABLE 79",47%
same,Net absorbance Rep. 1,"recombinant human CD39; 0.01 μM, TABLE 79",0.26
same,Net absorbance Rep. 2,"recombinant human CD39; 0.01 μM, TABLE 79",0.30
same,Activity (%) Rep. 1,"recombinant human CD39; 0.01 μM, TABLE 80",54%
same,Activity (%) Rep. 2,"recombinant human CD39; 0.01 μM, TABLE 80",51%
same,Inhibition (%),"recombinant human CD39; 0.01 μM, TABLE 80",47%
same,Net absorbance Rep. 1,"recombinant human CD39; 0.01 μM, TABLE 80",0.154
same,Net absorbance Rep. 2,"recombinant human CD39; 0.01 μM, TABLE 80",0.145
same,Activity (%) Rep. 1,"recombinant human CD39; 0.01 μM, TABLE 81",36%
same,Activity (%) Rep. 2,"recombinant human CD39; 0.01 μM, TABLE 81",37%
same,Inhibition (%),"recombinant human CD39; 0.01 μM, TABLE 81",64%
same,Net absorbance Rep. 1,"recombinant human CD39; 0.01 μM, TABLE 81",0.19
same,Net absorbance Rep. 2,"recombinant human CD39; 0.01 μM, TABLE 81",0.20
same,Activity (%) Rep. 1,"recombinant human CD39; 0.01 μM, TABLE 83",67%
same,Activity (%) Rep. 2,"recombinant human CD39; 0.01 μM, TABLE 83",66%
same,Inhibition (%),"recombinant human CD39; 0.01 μM, TABLE 83",33%
same,Net absorbance Rep. 1,"recombinant human CD39; 0.01 μM, TABLE 83",0.20
same,Net absorbance Rep. 2,"recombinant human CD39; 0.01 μM, TABLE 83",0.19
same,Activity (%) Repeat 1,"recombinant human CD39; 0.01 μM, TABLE 85",65%
same,Activity (%) Repeat 2,"recombinant human CD39; 0.01 μM, TABLE 85",68%
same,Inhibition (%),"recombinant human CD39; 0.01 μM, TABLE 85",34%
same,Net Signal (Absorbance) Repeat 1,"recombinant human CD39; 0.01 μM, TABLE 85",0.21
same,Net Signal (Absorbance) Repeat 2,"recombinant human CD39; 0.01 μM, TABLE 85",0.22
same,Activity (%) Rep. 1,"recombinant human CD39; 0.1 μM, TABLE 79",14%
same,Activity (%) Rep. 2,"recombinant human CD39; 0.1 μM, TABLE 79",19%
same,CD39 Inhibition (%),"recombinant human CD39; 0.1 μM, TABLE 79",84%
same,Net absorbance Rep. 1,"recombinant human CD39; 0.1 μM, TABLE 79",0.08
same,Net absorbance Rep. 2,"recombinant human CD39; 0.1 μM, TABLE 79",0.10
same,Activity (%) Rep. 1,"recombinant human CD39; 0.1 μM, TABLE 80",26%
same,Activity (%) Rep. 2,"recombinant human CD39; 0.1 μM, TABLE 80",26%
same,Inhibition (%),"recombinant human CD39; 0.1 μM, TABLE 80",74%
same,Net absorbance Rep. 1,"recombinant human CD39; 0.1 μM, TABLE 80",0.073
same,Net absorbance Rep. 2,"recombinant human CD39; 0.1 μM, TABLE 80",0.073
same,Activity (%) Rep. 1,"recombinant human CD39; 0.1 μM, TABLE 81",16%
same,Activity (%) Rep. 2,"recombinant human CD39; 0.1 μM, TABLE 81",10%
same,Inhibition (%),"recombinant human CD39; 0.1 μM, TABLE 81",87%
same,Net absorbance Rep. 1,"recombinant human CD39; 0.1 μM, TABLE 81",0.08
same,Net absorbance Rep. 2,"recombinant human CD39; 0.1 μM, TABLE 81",0.06
same,Activity (%) Rep. 1,"recombinant human CD39; 0.1 μM, TABLE 83",30%
same,Activity (%) Rep. 2,"recombinant human CD39; 0.1 μM, TABLE 83",29%
same,Inhibition (%),"recombinant human CD39; 0.1 μM, TABLE 83",70%
same,Net absorbance Rep. 1,"recombinant human CD39; 0.1 μM, TABLE 83",0.09
same,Net absorbance Rep. 2,"recombinant human CD39; 0.1 μM, TABLE 83",0.09
same,Activity (%) Repeat 1,"recombinant human CD39; 0.1 μM, TABLE 85",39%
same,Activity (%) Repeat 2,"recombinant human CD39; 0.1 μM, TABLE 85",38%
same,Inhibition (%),"recombinant human CD39; 0.1 μM, TABLE 85",61%
same,Net Signal (Absorbance) Repeat 1,"recombinant human CD39; 0.1 μM, TABLE 85",0.13
same,Net Signal (Absorbance) Repeat 2,"recombinant human CD39; 0.1 μM, TABLE 85",0.13

# Source: US11752188B2, “Compositions and methods for nutritional supplements” (DailyColors Health Inc., priority 2020, dated 2023)
